This is an account of results in patent US20220153751A1, “BIFUNCTIONAL COMPOUNDS” (BioTheryX, Inc., priority 2018, published 2022).

Molecules are shown by their SMILES. Bounds are passed on as bounds.

By viability is commonly meant a per cent measure of how many cells are alive, often set against a control. What is called inhibition is how much of the control response was suppressed. The Dmax is the largest share of the target that was removed. A higher Dmax goes with deep degradation.

Holding throughout (format): cell-based
One assay concerns MOLM-13 cells. Description: MOLM-13 cell viability assay (CellTiter-Glo). The settings on record: Homo sapiens, MOLM-13, 72 h, 3 days, read-out: MOLM-13 Cell Viability % DMSO at 1 μM. The protocol:
MOLM-13 cells were cultured in RPMI 1640 media supplemented with 10% fetal bovine serum, streptomycin and penicillin, and were plated in walled 96-well plates at 2500 cells/well. Cells were incubated in DMSO (control) or the indicated compound for 3 days at 37° C. and 5% CO2. Following the incubation period, 100 μL of CellTiterGlow (CTG) reagent (CellTiter-Glo® Luminescent Cell Viability Assay, Promega (Madison, Wis.)) was added to each well. Following a 10 minutes incubation with shaking, luminescence was measured using the EnVision Multimode plate reader.
The MOLM-13 cell viability values as % DMSO are reported as “A”, “B”, “C”, or “D”. “A” represents a % viability value of less than 50% (value <50%). “B” represents a % viability value of equal to or more than 50% and less than 70% (50%≤value<70%). “C” represents a % viability value of equal to or more than 70% and less than 90% (70%≤value<90%). “D” represents a % viability value of equal or more than 90% (value ≥90%).
In general terms: In ATP-based viability assays light output follows the ATP content of the culture.

The test system of the next assay is TNF-α. The assay can be described thus: TNF-α inhibition assay, LPS-induced PBMCs / CD14+ monocytes (Meso Scale). The settings on record: 1 h pretreatment, 100 ng/mL LPS 18-24 h. The protocol:
(§1) Either frozen primary blood mononuclear cells (PBMCs) or frozen CD14+ mobilized peripheral blood monocytes were purchased from AllCells (PB003F, Normal Peripheral Blood MNC (Alameda, Calif.)). Cells were quick thawed, washed 1-time with RPMI-1640 (10% FBS/1% Pen-Strep) and plated in 96 well plates at 200,000 cells per well. Cells were pretreated with DMSO only or with the indicated compound for 1 h and then induced with 100 ng/mL lipopolysaccharide (LPS) for 18-24 h. The supernatant was analyzed for IL-1β, IL-6, and TNFα, using Meso Scale assay according to manufacturer's protocol. The negative control wells were treated with DMSO.
(§2) In Table 6, the % inhibition values are reported as “A”, “B”, “C”, or “D”. “A” represents a % inhibition value of less than 50% (value <50%). “B” represents a % inhibition value of equal to or more than 50% and less than 70% (50%≤value<70%). “C” represents a % inhibition value of equal to or more than 70% and less than 90% (70%≤value<90%). “D” represents a % inhibition value of equal or more than 90% (value ≥90%). In Table 7, the fold-change values are reported as “A”, “B”, “C”, or “D”. “A” represents a fold-change value of equal to or less than 0.1 (value ≤0.1). “B” represents a fold-change value of more than 0.1 and equal to or less than 0.5 (0.1<value≤0.5). “C” represents a fold-change value of more than 0.5 and equal to or less than 1 (0.5<value≤1). “D” represents a fold-change value of more than 1 (value >1).

Another assay relates to IL-1β. Description: IL-1β inhibition assay, LPS-induced PBMCs / CD14+ monocytes (Meso Scale). Conditions: 1 h pretreatment, 100 ng/mL LPS 18-24 h. The protocol:
as §1, §2

The subject of a further assay is IL-6. Description: IL-6 inhibition assay, LPS-induced PBMCs / CD14+ monocytes (Meso Scale). Conditions: 1 h pretreatment, 100 ng/mL LPS 18-24 h. The protocol:
as §1, §2

A further assay addresses T1, CDK9 (Homo sapiens, UniProt P50750).
T1 construct: Whole cell extracts were prepared using RIPA buffer; endogenous in cells; host or cells: MV-4-11
The assay can be described thus: CDK9 degradation assay (Western blot, MV-4-11 cells). The settings on record: 6-8 h; for Dmax at 0.1 µM: MV4-11, 0.1 μM; for Dmax at 1 µM: MV4-11, 1 μM. The protocol: (§3) MV-4-11 cells were grown in RPMI 1640 media supplemented with 10% fetal bovine serum, streptomycin and penicillin.
(§4) Cells were cultured at approximately 10^6 cells per mL and incubated in DMSO or the indicated compound for 6-8 h. Whole cell extracts were prepared using RIPA buffer according to manufacturer's protocol (Pierce). Briefly, 3×10^6 cells were washed once in PBS, the cell pellets were resuspended in RIPA buffer and allowed to incubate for 15 minutes on ice. Cells debris was removed by centrifugation and the cleared whole cell lysates were transferred to new tubes for further analysis.
(§5) For Western blot analysis, whole cell protein extracts were separated on 4-12% SDS-polyacrylamide gels, transferred to nitrocellulose and probed with the indicated primary antibodies. Membranes were subsequently washed and probed with the appropriate IRDye secondary antibodies (LI-COR). The signal was detected using the Odyssey Imaging System (LI-COR).
(§6) The following antibodies were used in these studies: Anti-eRF3/GSPT1: Abcam, ab126090 (Cambridge, Mass.); Anti-Ikaros: Abcam, ab191394 (Cambridge, Mass.); Anti-CK1α: Abcam, ab108296 (Cambridge, Mass.); Anti-CDK9: Santa Cruz Biotechnology, sc13130 (Dallas, Tex.); Anti-CDK16: Millipore Sigma, HPA001366 (St. Louis, Mo.); 3-actin (8H10comD10) mouse monoclonal antibody: Cell Signaling Technology, #3700 (Danvers, Mass.); IRDye 680RD Goat anti-rabbit antibody: LI-COR, 926-68071 (Lincoln, Nebr.); IRDye 800CW Goat anti-mouse antibody: LI-COR, 926-32210 (Lincoln, Nebr.).
(§7) CDK9 activities are shown in Table 4 at two different concentrations. CDK16 activities are shown in Table 5 at two different concentrations. In each of Tables 1-5, the % degradation values are reported as “A”, “B”, “C”, or “D”. “A” represents a % degradation value of less than 25% (value <25%). “B” represents a % degradation value of equal to or more than 25% and less than 50% (25%≤value<50%). “C” represents a % degradation value of equal to or more than 50% and less than 75% (50%≤value<75%). “D” represents a % degradation value of equal to or more than 75% (value ≥75%).

The target of another assay is T2, CDK16 (Homo sapiens, UniProt Q00536).
T2 construct: Whole cell extracts were prepared using RIPA buffer; endogenous in cells; host or cells: MV-4-11
Description: CDK16 degradation assay (Western blot, MV-4-11 cells). The settings on record: 6-8 h; for Dmax at 0.1 µM: MV4-11, 0.1 μM; for Dmax at 1 µM: MV4-11, 1 μM. The protocol:
as §3, §4, §5, §6, §7
Background: Immunoblotting shows a protein as a band on a membrane.

Another assay concerns the target T3, IKAROS (Homo sapiens, UniProt Q13422+Q96SW2).
T3 construct: endogenous in cells; host or cells: MV-4-11
Description: IKAROS degradation assay (Western blot, MV-4-11 cells). The settings on record: MV4-11, 6-8 h. The method, then: as §3, §4, §5, §6, §7

T1 sequence (P50750 whole entry): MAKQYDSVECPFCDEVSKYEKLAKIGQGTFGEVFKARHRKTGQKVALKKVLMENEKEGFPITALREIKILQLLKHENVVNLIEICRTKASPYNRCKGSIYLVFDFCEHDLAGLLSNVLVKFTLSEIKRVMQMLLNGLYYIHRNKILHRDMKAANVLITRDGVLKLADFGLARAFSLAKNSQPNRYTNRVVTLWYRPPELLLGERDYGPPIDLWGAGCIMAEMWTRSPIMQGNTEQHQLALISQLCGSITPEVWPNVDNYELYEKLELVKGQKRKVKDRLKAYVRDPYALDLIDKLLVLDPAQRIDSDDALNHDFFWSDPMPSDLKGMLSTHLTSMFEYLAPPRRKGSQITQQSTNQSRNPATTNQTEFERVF
T3 sequence (Q13422 whole entry): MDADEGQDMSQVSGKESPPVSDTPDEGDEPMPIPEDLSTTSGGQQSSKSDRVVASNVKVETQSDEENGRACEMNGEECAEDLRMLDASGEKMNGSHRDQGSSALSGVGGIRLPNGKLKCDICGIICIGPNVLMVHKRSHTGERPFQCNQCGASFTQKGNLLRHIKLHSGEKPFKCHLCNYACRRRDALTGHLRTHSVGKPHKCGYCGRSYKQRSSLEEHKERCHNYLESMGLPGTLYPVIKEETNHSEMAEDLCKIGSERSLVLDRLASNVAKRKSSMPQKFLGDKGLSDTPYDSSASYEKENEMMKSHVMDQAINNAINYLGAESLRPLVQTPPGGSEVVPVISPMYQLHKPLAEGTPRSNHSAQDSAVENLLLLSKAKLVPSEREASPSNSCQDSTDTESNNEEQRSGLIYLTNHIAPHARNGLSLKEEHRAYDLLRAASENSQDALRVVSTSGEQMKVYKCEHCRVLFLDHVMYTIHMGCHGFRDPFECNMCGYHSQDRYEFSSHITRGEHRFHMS
T3 sequence (Q96SW2 whole entry): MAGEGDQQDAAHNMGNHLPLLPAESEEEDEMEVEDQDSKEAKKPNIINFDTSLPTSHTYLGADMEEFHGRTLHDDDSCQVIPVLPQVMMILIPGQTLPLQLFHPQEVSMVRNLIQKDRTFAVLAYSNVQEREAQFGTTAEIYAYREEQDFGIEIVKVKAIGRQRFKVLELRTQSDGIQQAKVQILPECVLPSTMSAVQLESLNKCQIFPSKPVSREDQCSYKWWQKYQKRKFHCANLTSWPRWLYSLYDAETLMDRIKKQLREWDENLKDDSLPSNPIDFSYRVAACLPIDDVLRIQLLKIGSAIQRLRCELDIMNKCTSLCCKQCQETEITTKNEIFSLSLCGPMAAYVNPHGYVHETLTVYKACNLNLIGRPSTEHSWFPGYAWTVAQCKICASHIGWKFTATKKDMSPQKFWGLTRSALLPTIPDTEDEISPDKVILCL
T3 sequence (Q16531 whole entry partner): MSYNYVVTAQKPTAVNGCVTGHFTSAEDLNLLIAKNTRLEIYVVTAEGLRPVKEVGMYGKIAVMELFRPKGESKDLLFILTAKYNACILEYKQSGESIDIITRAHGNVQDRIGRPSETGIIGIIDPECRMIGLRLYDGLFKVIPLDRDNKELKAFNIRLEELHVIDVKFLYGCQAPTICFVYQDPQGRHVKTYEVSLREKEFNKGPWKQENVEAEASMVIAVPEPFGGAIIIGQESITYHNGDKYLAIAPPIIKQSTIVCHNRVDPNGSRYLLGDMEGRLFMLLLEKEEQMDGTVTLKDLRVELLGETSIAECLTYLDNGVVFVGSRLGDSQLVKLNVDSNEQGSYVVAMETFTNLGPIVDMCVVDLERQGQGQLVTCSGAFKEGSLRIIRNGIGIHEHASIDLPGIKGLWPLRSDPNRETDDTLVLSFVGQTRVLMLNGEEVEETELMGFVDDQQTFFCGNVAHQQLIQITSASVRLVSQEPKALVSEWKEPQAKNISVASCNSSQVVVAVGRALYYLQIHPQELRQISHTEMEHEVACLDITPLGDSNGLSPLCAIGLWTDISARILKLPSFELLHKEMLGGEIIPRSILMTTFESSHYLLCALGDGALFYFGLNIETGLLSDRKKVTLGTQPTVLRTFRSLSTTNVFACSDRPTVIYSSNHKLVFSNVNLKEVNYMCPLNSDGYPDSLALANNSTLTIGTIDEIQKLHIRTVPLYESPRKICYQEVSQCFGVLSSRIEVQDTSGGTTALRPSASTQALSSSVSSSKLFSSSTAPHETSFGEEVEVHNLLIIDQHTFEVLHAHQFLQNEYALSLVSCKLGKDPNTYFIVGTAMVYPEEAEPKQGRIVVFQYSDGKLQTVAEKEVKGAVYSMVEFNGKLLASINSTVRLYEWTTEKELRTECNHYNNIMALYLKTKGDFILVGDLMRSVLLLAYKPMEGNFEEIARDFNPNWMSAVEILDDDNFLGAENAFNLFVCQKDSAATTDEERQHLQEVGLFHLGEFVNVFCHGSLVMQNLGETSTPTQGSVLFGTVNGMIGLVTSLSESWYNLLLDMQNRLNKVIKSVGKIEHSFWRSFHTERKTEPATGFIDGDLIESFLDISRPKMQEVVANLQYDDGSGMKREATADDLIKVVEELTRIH
T2 sequence (Q00536 whole entry): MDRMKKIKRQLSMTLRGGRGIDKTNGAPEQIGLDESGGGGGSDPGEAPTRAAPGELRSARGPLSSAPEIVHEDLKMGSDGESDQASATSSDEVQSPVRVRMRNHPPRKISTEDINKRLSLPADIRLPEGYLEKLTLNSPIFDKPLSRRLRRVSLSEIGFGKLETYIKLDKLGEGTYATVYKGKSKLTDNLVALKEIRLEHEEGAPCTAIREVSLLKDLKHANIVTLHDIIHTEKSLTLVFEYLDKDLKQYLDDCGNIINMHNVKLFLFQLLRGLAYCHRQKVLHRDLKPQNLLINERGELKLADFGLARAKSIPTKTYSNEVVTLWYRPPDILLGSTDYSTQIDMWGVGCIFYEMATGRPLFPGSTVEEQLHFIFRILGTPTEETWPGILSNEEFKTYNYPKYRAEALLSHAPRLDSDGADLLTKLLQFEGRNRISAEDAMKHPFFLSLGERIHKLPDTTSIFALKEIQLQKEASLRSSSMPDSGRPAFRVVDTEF

Regarding `CN(CCNCC(=O)NCc1scc2c1CN(C1CCC(=O)NC1=O)C2=O)CCNC(=O)CN1CCC(C(=O)Nc2ncc(SCc3ncc(C(C)(C)C)o3)s2)CC1` (stereo not drawn) [Compound 44, N-(5-(((5-(tert-butyl)oxazol-2-yl)methyl)thio)thiazol-2-yl)-1-(1-(5-(2,6-dioxopiperidin-3-yl)-4-oxo-5,6-dihydro-4H-thieno[3,4-c]pyrrol-1-yl)-8-methyl-3,12-dioxo-2,5,8,11-tetraazatridecan-13-yl)piperidine-4-carboxamide], the viability at 1 µM with MOLM-13 cells was 50 to 70%. Also, the inhibition at 1 µM is 50 to 70% with TNF-α, 50 to 70% in the assay on IL-1β and below 50% in the assay with IL-6.
Consider `Cn1ncc(-c2nc(N[C@H]3CC[C@H](NC(=O)CCCCCCNC(=O)NCc4cc5c(s4)C(=O)N(C4CCC(=O)NC4=O)C5)CC3)ncc2Cl)c1CC1CC1` (stereo partly drawn) [Compound 5, N-((1r,4r)-4-((5-chloro-4-(5-(cyclopropylmethyl)-1-methyl-1H-pyrazol-4-yl)pyrimidin-2-yl)amino)cyclohexyl)-7-(3-((5-(2,6-dioxopiperidin-3-yl)-6-oxo-5,6-dihydro-4H-thieno[2,3-c]pyrrol-2-yl)methyl)ureido)heptanamide], for which the viability at 1 µM in the assay with MOLM-13 cells was above 90%. The inhibition at 1 µM is 70 to 90% in the assay on TNF-α, above 90% in the assay on IL-1β and above 90% with IL-6.
For the molecule `Cn1ncc(-c2nc(N[C@H]3CC[C@H](NCC(=O)NCCCCNCC(=O)NCc4cc5c(s4)C(=O)N(C4CCC(=O)NC4=O)C5=O)CC3)ncc2Cl)c1CC1CC1` (stereo partly drawn) [Compound 36, 2-(((1r,4r)-4-((5-chloro-4-(5-(cyclopropylmethyl)-1-methyl-1H-pyrazol-4-yl)pyrimidin-2-yl)amino)cyclohexyl)amino)-N-(4-((2-(((5-(2,6-dioxopiperidin-3-yl)-4,6-dioxo-5,6-dihydro-4H-thieno[2,3-c]pyrrol-2-yl)methyl)amino)-2-oxoethyl)amino)butyl)acetamide], in the assay on MOLM-13 cells, the viability at 1 µM is 50 to 70%. Besides, the inhibition at 1 µM with TNF-α, in the assay on IL-1β and in the assay with IL-6 was 70 to 90% each time. In addition, the Dmax at 0.1 µM at CDK9 and on CDK16 was below 25% each time. In addition, the Dmax at 1 µM on CDK9 and on CDK16 was 25 to 50% each time.
Take `CC(C)(C)c1cnc(CSc2cnc(NC(=O)C3CCN(CC(=O)NCCCCCNC(=O)NCc4cc5c(s4)C(=O)N(C4CCC(=O)NC4=O)C5=O)CC3)s2)o1` (stereo not drawn) [Compound 27, N-(5-(((5-(tert-butyl)oxazol-2-yl)methyl)thio)thiazol-2-yl)-1-(2-((5-(3-((5-(2,6-dioxopiperidin-3-yl)-4,6-dioxo-5,6-dihydro-4H-thieno[2,3-c]pyrrol-2-yl)methyl)ureido)pentyl)amino)-2-oxoethyl)piperidine-4-carboxamide]: the viability at 1 µM with MOLM-13 cells is above 90%. The molecule further had a Dmax at 1 µM at IKAROS of 25 to 50%.
As to `Cn1ncc(-c2nc(N[C@H]3CC[C@H](NCCCCCCNC(=O)NCc4cc5c(s4)C(=O)N(C4CCC(=O)NC4=O)C5)CC3)ncc2Cl)c1CC1CC1` (stereo partly drawn) [Compound 24, 1-(6-(((1r,4r)-4-((5-chloro-4-(5-(cyclopropylmethyl)-1-methyl-1H-pyrazol-4-yl)pyrimidin-2-yl)amino)cyclohexyl)amino)hexyl)-3-((5-(2,6-dioxopiperidin-3-yl)-6-oxo-5,6-dihydro-4H-thieno[2,3-c]pyrrol-2-yl)methyl)urea], the viability at 1 µM with MOLM-13 cells was above 90%. Moreover, the maximal degradation (Dmax) at 0.1 µM at CDK9 and on CDK16 was 50 to 75% in each case. The Dmax at 1 µM at CDK9 is at least 75%; on IKAROS, 25 to 50%; on CDK16, at least 75%.
As to `Cn1ncc(-c2nc(N[C@H]3CC[C@H](NCC(=O)NCCCCCNCC(=O)NCc4cc5c(s4)C(=O)N(C4CCC(=O)NC4=O)C5)CC3)ncc2F)c1CC1CC1` (stereo partly drawn) [Compound 25, 2-(((1r,4r)-4-((4-(5-(cyclopropylmethyl)-1-methyl-1H-pyrazol-4-yl)-5-fluoropyrimidin-2-yl)amino)cyclohexyl)amino)-N-(5-((2-(((5-(2,6-dioxopiperidin-3-yl)-6-oxo-5,6-dihydro-4H-thieno[2,3-c]pyrrol-2-yl)methyl)amino)-2-oxoethyl)amino)pentyl)acetamide], the viability at 1 µM with MOLM-13 cells is above 90%. Also, the Dmax at 0.1 µM on CDK9 is 50 to 75%. Besides, the maximal degradation (Dmax) at 1 µM at CDK9 lay in the range of 50 to 75%; on IKAROS it was 25 to 50%; on CDK16, 50 to 75%.
For the molecule `CC(C)(C)c1cnc(CSc2cnc(NC(=O)C3CCN(CCOCCOCCNC(=O)NCc4cc5c(s4)C(=O)N(C4CCC(=O)NC4=O)C5)CC3)s2)o1` (stereo not drawn) [Compound 19, N-(5-(((5-(tert-butyl)oxazol-2-yl)methyl)thio)thiazol-2-yl)-1-(1-(5-(2,6-dioxopiperidin-3-yl)-6-oxo-5,6-dihydro-4H-thieno[2,3-c]pyrrol-2-yl)-3-oxo-7,10-dioxa-2,4-diazadodecan-12-yl)piperidine-4-carboxamide], in the assay on MOLM-13 cells, the viability at 1 µM fell in the range of 70 to 90%. For the same molecule, the inhibition at 1 µM is 70 to 90% in the assay on TNF-α, above 90% with IL-1β and above 90% in the assay with IL-6.
Take `CC(C)(C)c1cnc(CSc2cnc(NC(=O)C3CCN(CCCCCCCCNC(=O)NCc4cc5c(s4)C(=O)N(C4CCC(=O)NC4=O)C5)CC3)s2)o1` (stereo not drawn) [Compound 20, N-(5-(((5-(tert-butyl)oxazol-2-yl)methyl)thio)thiazol-2-yl)-1-(8-(3-((5-(2,6-dioxopiperidin-3-yl)-6-oxo-5,6-dihydro-4H-thieno[2,3-c]pyrrol-2-yl)methyl)ureido)octyl)piperidine-4-carboxamide]: the viability at 1 µM in the assay on MOLM-13 cells is above 90%. Besides, the Dmax at 1 µM on IKAROS lay within 50 to 75%.
Regarding `CC(C)(C)c1cnc(CSc2cnc(NC(=O)C3CCN(CC(=O)NCCOCCOCCOCCNc4cccc5c4C(=O)N(C4CCC(=O)NC4=O)C5=O)CC3)s2)o1` (stereo not drawn) [Compound 10, N-(5-(((5-(tert-butyl)oxazol-2-yl)methyl)thio)thiazol-2-yl)-1-(14-((2-(2,6-dioxopiperidin-3-yl)-1,3-dioxoisoindolin-4-yl)amino)-2-oxo-6,9,12-trioxa-3-azatetradecyl)piperidine-4-carboxamide], the Dmax at 1 µM on IKAROS lay in the range of 50 to 75%.
